Measured values as given in patent publication US20100004159A1, “SUBSTITUTED IMIDAZOLONE DERIVATIVES, PREPARATIONS AND USES” (GENFIT, priority 2006, published 2010).

Row | melting point [°C] | SMILES
1 | 74 | CCCCC1=NC2(CCCC2)C(=O)N1Cc1ccc(-c2ccc(CCC)c(OC(C)(C)C(=O)O)c2)cc1 [Compound 98, 2-butyl-1-[(3′-((1-carboxy-1,1-dimethylmethyl)oxy)-4′-propyl-biphenyl-4-yl)methyl]-4-spirocyclopentyl-1H-imidazol-5(4H)-one]
2 | 115 to 120 | CCCCC1=NC(c2ccccc2)C(=O)N1Cc1ccc(C(=O)c2cccc(OC(C)(C)C(=O)O)c2)cc1 (stereo not shown) [Compound 15, 2-butyl-1-[[4-[(3-((1-carboxy-1,1-dimethylmethyl)oxy)phenyl)carbonyl]phenyl]methyl]-4-phenyl-1H-imidazol-5(4H)-one]
3 | 82 to 85 | CCCCC1=NC2(CCCCC2)C(=O)N1Cc1ccc(-c2cccc(OCC(=O)O)c2)cc1 [Compound 52, 2-butyl-1-[(3′-((1-carboxymethyl)oxy)biphenyl-4-yl)methyl]-4-spirocyclohexyl-1H-imidazol-5(4H)-one]
4 | 96 | CCCCC1=NC2(CCCCC2)C(=O)N1Cc1ccc(-c2cc(OC(C)C(=O)O)ccc2F)cc1 (stereo not shown) [Compound 57, 2-butyl-1-[(3′-((1-carboxy-1-methylmethyl)oxy)-6′-fluoro-biphenyl-4-yl)methyl]-4-spirocyclohexyl-1H-imidazol-5(4H)-one]
5 | 147 to 149 | CCCCC1=NC2(CCCC2)C(=O)N1Cc1ccc(Cc2ccc(OC(C)(C)C(=O)O)cc2)cc1 [Compound 31]
6 | < 50 | CCCCC1=NC2(CCCC2)C(=O)N1Cc1ccc(-c2cc(OC(C)(C)C(=O)O)ccc2C#N)cc1 [Compound 89, 2-butyl-1-[(3′-((1-carboxy-1.1-dimethylmethyl)oxy)-6′-cyano-biphenyl-4-yl)methyl]-4-spirocyclopentyl-1H-imidazol-5(4H)-one]
7 | 65 | CCCCC1=NC(CC)(CC)C(=O)N1Cc1ccc(-c2cccc(OC(C(=O)O)C(C)C)c2)cc1 (stereo not shown) [Compound 63, 2-butyl-1-[(3′-((1-carboxy-1-(1,1-dimethylmethyl)methyl)oxy)-biphenyl-4-yl)methyl]-4,4-diethyl-1H-imidazol-5(4H)-one]
8 | 72 | CCCCC1=NC2(CCCCC2)C(=O)N1Cc1ccc(-c2cc(OC(C)(C)C(=O)O)ccc2F)cc1 [Compound 60, 2-butyl-1-[(3′-((1-carboxy-1,1-dimethylmethyl)oxy)-6′-fluoro-biphenyl-4-yl)methyl]-4-spirocyclohexyl-1H-imidazol-5(4H)-one]
9 | 81 to 88 | CC1=NC2(CCCC2)C(=O)N1Cc1ccc(-c2cccc(OC(C)(C)C(=O)O)c2)cc1 [Compound 18, 1-[(3′-((1-carboxy-1,1-dimethylmethyl)oxy)biphenyl-4-yl)methyl]-2-methyl-4-spirocyclopentyl-1H-imidazol-5(4H)-one]
10 | 62 | CCCCC1=NC(CC)(CC)C(=O)N1Cc1ccc(-c2cc(OC(C)(C)C(=O)O)ccc2F)cc1 [Compound 69]
11 | 85 to 90 | CCCCC1=NC2(CCCC2)C(=O)N1Cc1ccc(C(=O)c2ccccc2OC(C)(C)C(=O)O)cc1 [Compound 7, 2-butyl-1-[[4-[(2-((1-carboxyl-1,1-dimethylmethyl)oxy)phenyl)carbonyl]phenyl]methyl]-4-spirocyclopentyl-1H-imidazol-5(4H)-one]
12 | 76 | CCCCC1=NC2(CCCC2)C(=O)N1Cc1ccc(-c2cccc(OC(CC)c3nnn[nH]3)c2)cc1 (stereo not shown) [Compound 99, 2-butyl-1-[(3′-((1-(tetrazol-5-yl)-1-ethylmethyl)oxy)-biophenyl-4-yl)methyl]-4-spirocyclopentyl-1H-imidazol-5(4H)-one]
13 | 184 | CCCCC1=NC2(CCCCC2)C(=O)N1Cc1ccc(-c2cccc(OC3(C(=O)O)CCC3)c2)cc1 [Compound 67, 2-butyl-1-[(3′-((1-carboxy-1-spirocyclobutylmethyl)oxy)biphenyl-4-yl)methyl]-4-spirocyclohexyl-1H-imidazol-5(4H)-one]
14 | < 50 | CCCCC1=NC2(CCCC2)C(=O)N1Cc1ccc(-c2cc(OC(C)(C)C(=O)O)ccc2CC(C)C)cc1 [Compound 87, 2-butyl-1-[(3∝-((1-carboxy-1,1-dimethylmethyl)oxy)-6′-isobutyl-biphenyl-4-yl)methyl]-4-spirocyclopentyl-1H-imidazol-5(4H )-one]
15 | 81 | CCCCC1=NC2(CCCC2)C(=O)N1Cc1ccc(-c2cc(OC(C(=O)O)C(C)C)ccc2CCC)cc1 (stereo not shown) [Compound 86, 2-butyl-1-[(3′-((1-carboxy-1-(1,1-dimethylmethyl)methyl)oxy)-6′-propyl-biphenyl-4-yl)methyl]-4-spirocyclopentyl-1H-imidazol-5(4H)-one]
16 | 215 to 217 | CCCCC1=NC(c2ccccc2)C(=O)N1Cc1ccc(C(=O)c2ccc(OC(C)(C)C(=O)O)cc2)cc1 (stereo not shown) [Compound 20, 2-butyl-1-[[4-[(4-((1-carboxy-1,1-dimethylmethyl)oxy)phenyl)carbonyl]phenyl]methyl]-4-phenyl-1H-imidazol-5(4H)-one]
17 | 128 to 130 | CCCCC1=NC2(CCCC2)C(=O)N1Cc1ccc(-c2cccc(OCC#N)c2)cc1 [Compound 23, 2-butyl-1-[(3′-(cyanomethoxy)biphenyl-4-yl)methyl]-4-spirocyclopentyl-1H-imidazol-5(4H)-one]

Row | melting point [°C] | SMILES
18 | 160 | CCCCC1=NC2(CCCC2)C(=O)N1Cc1ccc(-c2cccc(OC(C)(C)C(=O)O)c2)cc1C [Compound 91]
19 | 65 | CCCCC1=NC(CC)(CC)C(=O)N1Cc1ccc(-c2cc(OC(C(=O)O)C(C)C)ccc2F)cc1 (stereo not shown) [Compound 68, 2-butyl-1-[(3′-((1-carboxy-1-(1,1-dimethylmethyl)methyl)oxy)-6′-fluoro-biphenyl-4-yl)methyl]-4,4-diethyl-1H-imidazol-5(4H)one]
20 | 105 | CCCCC1=NC2(CCCCC2)C(=O)N1Cc1ccc(-c2cccc(OC(C(=O)O)C(C)C)c2)cc1 (stereo not shown) [Compound 55, 2-butyl-1-[(3′-((1-carboxy-1-(1,1-dimethylmethyl)methyl)oxy)-biphenyl-4-yl)methyl]-4-spirocyclohexyl-1H-imidazol-5(4H)-one]
21 | 186 | CCCCC1=NC(CC)(CC)C(=O)N1Cc1ccc(-c2cccc(OC(C)C(=O)O)c2)cc1 (stereo not shown) [Compound 66, 2-butyl-1-[(3′-((1-carboxy-1-methylmethyl)oxy)biphenyl-4-yl)methyl]-4,4-diethyl-1H-imidazol-5(4H)one]
22 | 140 | CCCCC1=NC2(CCCCC2)C(=O)N1Cc1ccc(-c2cccc(OC(C)(C)C(=O)O)c2)c(C)c1 [Compound 72]
23 | 76 | CCCCC1=NC2(CCCC2)C(=O)N1Cc1ccc(-c2cc(OC(C)C(=O)O)ccc2CCC)cc1 (stereo not shown) [Compound 83, 2-butyl-1-[(3′-((1-carboxy-1-methylmethyl)oxy)-6′-propyl-biphenyl-4-yl)methyl]-4-spirocyclopentyl-1H-imidazol-5(4H)-one]
24 | 167 | CCCCC1=NC2(CCCC2)C(=O)N1Cc1cccc(-c2ccccc2OC(C)(C)C(=O)O)c1 [Compound 75, 2-butyl-1-[(2′-((1-carboxy-1,1-dimethylmethyl)oxy)biphenyl-3-yl)methyl]-4-spirocyclopentyl-1H-imidazol-5(4H)-one]
25 | 174 to 176 | CCCCC1=NC2(CCCC2)C(=O)N1Cc1ccc(-c2cc(OC(C)(C)C(=O)O)ccc2Br)cc1 [Compound 12, 1-[(6′-bromo-3′-((1-carboxy-1,1-dimethylmethyl)oxy)biphenyl-4-yl)methyl]-2-butyl-4-spirocyclopentyl-1H-imidazol-5(4H)-one]
26 | < 50 | CCCCC1=NC2(CCCC2)C(=O)N1Cc1ccc(-c2ccc([N+](=O)[O-])c(OC(C)(C)C(=O)O)c2)cc1 [Compound 95, 2-butyl-1-[(3′-((1-carboxy-1,1-dimethylmethyl)oxy)-4′-nitro-biphenyl-4-yl)methyl]-4-spirocyclopentyl-1H-imidazol-5(4H)-one]
27 | 134 to 190 | CCCC1=NC2(CCCC2)C(=O)N1Cc1ccc(-c2cccc(OC(C)(C)C(=O)O)c2)cc1 [Compound 16, 1-[(3′-((1-carboxy-1,1-dimethylmethyl)oxy)biphenyl-4-yl)methyl]-2-propyl-4-spirocyclopentyl-1H-imidazol-5(4H)-one]
28 | 77 | CCCCC1=NC2(CCCCC2)C(=O)N1Cc1ccc(-c2cccc(OC(CC)C(=O)O)c2)c(C)c1 (stereo not shown) [Compound 71, 2-butyl-1-[(3′-((1-carboxy-1-ethylmethyl)oxy)-3-methyl-biphenyl-4-yl)methyl]-4-spirocyclohexyl-1H-imidazol-5(4H)one]
29 | 170 | CCCCC1=NC2(CCCCC2)C(=O)N1Cc1ccc(-c2cccc(OC(CC)C(=O)O)c2)cc1 (stereo not shown) [Compound 54, 2-butyl-1-[(3′-((1-carboxy-1-ethylmethyl)oxy)biphenyl-4-yl)methyl]-4-spirocyclohexyl-1H-imidazol-5(4H)-one]
30 | 184 | CCCCC1=NC(CC)(CC)C(=O)N1Cc1ccc(-c2cccc(OC(CC)C(=O)O)c2)cc1 (stereo not shown) [Compound 64, 2-butyl-1-[(3′-((1-carboxy-1-ethylmethyl)oxy)biphenyl-4-yl)methyl]-4,4-diethyl-1H-imidazol-5(4H)one]
31 | 102 to 105 | CCCCC1=NC2(CCCCC2)C(=O)N1Cc1ccc(-c2cc(OCC(=O)O)ccc2F)cc1 [Compound 56, 2-butyl-1-[(3′-((1-carbonylmethyl)oxy)-6′-fluoro-biphenyl-4-yl)methyl]-4-spirocyclohexyl-1H-imidazol-5(4H)-one]
32 | 81 | CCCCC1=NC2(CCCCC2)C(=O)N1Cc1ccc(-c2cccc(OC(C)C(=O)O)c2)c(C)c1 (stereo not shown) [Compound 70, 2-butyl-1-[(3′-((1-carboxy-1-methylmethyl)oxy)-3-methyl-biphenyl-4-yl)methyl]-4-spirocyclohexyl-1H-imidazol-5(4H)one]
33 | 144 | CCCCC1=NC(CC)(CC)C(=O)N1Cc1ccc(-c2cccc(OC(C)(C)C(=O)O)c2)cc1 [Compound 65, 2-butyl-1-[(3′-((1-carboxy-1,1-dimethylmethyl)oxy)biphenyl-4-yl)methyl]-4,4-diethyl-1H-imidazol-5(4H)one]
34 | 175 to 177 | CC(C)(Oc1cccc(-c2ccc(CN3C(=O)C4(CCCC4)N=C3C3CC3)cc2)c1)C(=O)O [Compound 29, 1-[(3′-((1-carboxy-1,1-dimethylmethyl)oxy)biphenyl-4-yl)methyl]-2-cyclopropyl-4-spirocyclopentyl-1H-imidazol-5(4H)-one]
